Reference: patent publication US20090042949A1, “Indoles Useful in the Treatment of Inflammation” (priority 2005, published 2009)

Molecular target: T1, mPGES-1 (Homo sapiens, UniProt O14684)
T1 construct: made in house; host or cells: E. coli
T1 sequence (O14684 1-152): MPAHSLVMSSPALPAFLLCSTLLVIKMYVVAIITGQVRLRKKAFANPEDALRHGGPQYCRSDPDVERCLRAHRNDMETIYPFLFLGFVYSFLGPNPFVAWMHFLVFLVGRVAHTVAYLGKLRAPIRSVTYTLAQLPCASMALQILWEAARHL
Test: mPGES-1 biological test (conversion of PGH2 to PGE2, HPLC analysis)
Assay type: biochemical
Details: mPGES-1 expressed in E. coli, membrane fraction; 25 min preincubation with inhibitor, 60 s with PGH2, room temperature
Protocol: In the assay mPGES-1 catalyses the reaction where the substrate PGH2 is converted to PGE2. mPGES-1 is expressed in E. coli and the membrane fraction is dissolved in 20 mM NaPi-buffer pH 8.0 and stored at −80° C. In the assay mPGES-1 is dissolved in 0.1 M KPi-buffer pH 7.35 with 2.5 mM glutathione. The stop solution consists of H2O/MeCN (7/3), containing FeCl2 (25 mM) and HCl (0.15 M). The assay is performed at room temperature in 96-well plates. Analysis of the amount of PGE2 is performed with reversed phase HPLC (Waters 2795 equipped with a 3.9×150 mm C18 column). The mobile phase consists of H2O/MeCN (7/3), containing TFA (0.056%), and absorbance is measured at 195 nm with a Waters 2487 UV-detector.
The following is added chronologically to each well: • 1. 100 μL mPGES-1 in KPi-buffer with glutathione. Total protein concentration: 0.02 mg/mL. • 2. 1 μL inhibitor in DMSO. Incubation of the plate at room temperature for 25 minutes. • 3. 4 μL of a 0.25 mM PGH2 solution. Incubation of the plate at room temperature for 60 seconds. • 4. 100 μL stop solution. • 180 μL per sample is analyzed with HPLC.

| Compound | IC50 [nM] |
| --- | --- |
| CN(CC(=O)O)C(=O)c1cc2cc(-c3ccc(C(C)(C)C)cc3)ccc2n1-c1ccc(OC2CCCC2)cc1 [Example 5, {[5-(4-tert-Butylphenyl)-1-(4-cyclopentyloxyphenyl)indole-2-carbonyl]-methylamino}acetic acid] | 740 |
| CC(C)(C)c1ccc(-c2ccc3c(c2)cc(C(=O)Nn2cnnc2)n3-c2ccc(OC3CCCC3)cc2)cc1 [Example 12, 5-(4-tert-Butylphenyl)-1-(4-cyclopentyloxyphenyl)indole-2-carboxylic acid[1,2,4]triazol-4-ylamide] | 550 |
| CC(C)Oc1ccc(-n2c(C(=O)NS(C)(=O)=O)c(Cl)c3cc(-c4ccc(C(F)(F)F)cn4)ccc32)cc1 [Example 13, N-[3-Chloro-1-(4-isopropoxyphenyl)-5-(5-trifluoromethylpyridin-2-yl)indole-2-carbonyl]methanesulfonamide] | 2700 |

Now from value to molecule:

| IC50 [nM] | Compound |
| --- | --- |
| 660 | CC(C)(C)c1ccc(-c2ccc3c(c2)cc(C(=O)NCCS(=O)(=O)O)n3-c2ccc(OC3CCCC3)cc2)cc1 [Example 2, 2-{[5-(4-tert-Butylphenyl)-1-(4-cyclopentyloxyphenyl)indole-2-carbonyl]-amino}ethanesulfonic acid] |
| 1900 | CC(C)(C)c1ccc(-c2ccc3c(c2)cc(C(=O)NCC(=O)O)n3-c2ccc(OC3CCCC3)cc2)cc1 [Example 4, {[5-(4-tert-Butylphenyl)-1-(4-cyclopentyloxyphenyl)indole-2-carbonyl]-amino}acetic acid] |
